{"source": "patent US20220031739A1", "about": "“ANTI-VIRAL COMPOSITIONS AND METHODS OF USE THEREOF” (Eye Therapies LLC, priority 2020, published 2022)", "origin": "cited, not measured here", "system": "herpes simplex virus (\"HSV\")", "data": [{"smiles": "O=c1[nH]c(=O)n([C@H]2C[C@H](O)[C@@H](CO)O2)cc1C(F)(F)F", "note": "[Trifluridine, trifluridine]", "values": [{"measurement": "toxicity", "setting": "likelihood especially high when used for long periods for deeper infections", "value": "causes toxicity of both virus and corneal cells"}, {"measurement": "time to treat superficial HSV infections from the start of treatment", "setting": "superficial HSV infections", "value": "≤ 1", "unit": "week"}]}]}
